The target of the assay is T1, LXRβ (Homo sapiens, UniProt P55055).
T1 construct: Co-transfection expression plasmids, comprising full-length LXRα (pCMX-h LXRα or LXRβ (pCMX-hLXRβ)); expressed in transfected cells; host or cells: CV-1 African green monkey kidney cells, transient transfection with pCMX-hLXRβ
T1 sequence (P55055 1-460): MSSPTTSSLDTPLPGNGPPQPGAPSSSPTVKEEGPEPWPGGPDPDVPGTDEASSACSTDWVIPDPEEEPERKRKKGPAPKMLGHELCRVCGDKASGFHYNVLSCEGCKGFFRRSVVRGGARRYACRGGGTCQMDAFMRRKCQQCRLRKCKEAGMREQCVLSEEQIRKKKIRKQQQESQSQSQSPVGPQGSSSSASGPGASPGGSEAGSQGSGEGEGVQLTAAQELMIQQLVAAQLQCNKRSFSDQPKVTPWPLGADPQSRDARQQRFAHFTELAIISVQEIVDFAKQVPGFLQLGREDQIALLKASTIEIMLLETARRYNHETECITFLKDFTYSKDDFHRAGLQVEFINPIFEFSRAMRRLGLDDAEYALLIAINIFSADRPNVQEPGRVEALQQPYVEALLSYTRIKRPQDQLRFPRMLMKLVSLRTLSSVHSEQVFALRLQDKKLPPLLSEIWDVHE
T1 sequence (P19793 1-462 partner): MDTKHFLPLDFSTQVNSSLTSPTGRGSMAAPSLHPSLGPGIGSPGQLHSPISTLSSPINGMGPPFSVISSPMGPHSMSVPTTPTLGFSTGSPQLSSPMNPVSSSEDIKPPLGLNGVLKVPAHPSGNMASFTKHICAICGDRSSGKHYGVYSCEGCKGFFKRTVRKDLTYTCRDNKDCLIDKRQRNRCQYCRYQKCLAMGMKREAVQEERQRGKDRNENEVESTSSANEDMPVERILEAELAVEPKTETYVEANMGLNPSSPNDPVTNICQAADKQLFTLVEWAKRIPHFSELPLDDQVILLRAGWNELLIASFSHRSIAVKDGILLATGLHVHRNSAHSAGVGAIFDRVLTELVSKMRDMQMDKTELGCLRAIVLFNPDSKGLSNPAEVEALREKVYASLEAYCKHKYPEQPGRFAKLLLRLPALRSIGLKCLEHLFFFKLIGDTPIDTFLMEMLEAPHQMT
The assay can be described thus: LXR/LXRE co-transfection assay (luciferase reporter) in CV-1 cells, LXRβ. In kind it is cell-based. The conditions noted are these: for EC50: CV-1 cells transfected with pCMX-hLXRβ and LXREx1-Tk-Luciferase, 20 hours incubation, read-out: LXRbeta agonism EC50; for Emax: CV-1 cells, relative to maximum response of high control N-(3-((4-fluorophenyl)-(naphthalene-2-sulfonyl)amino)propyl)-2,2-dimethylpropionamide, read-out: LXRbeta % EFFICACY
The method in brief: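 CV-1 cells transiently co-transfected with full-length human LXRβ, LXRE-Tk-luciferase reporter and β-galactosidase control, then exposed to compound (≤0.5% DMSO) for 20 h at 37 °C before luminescence read. EC50 from 10-point, half-log dose curves; efficacy relative to the sulfonamide high control, means of 2–3 experiments.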
In general terms: In a reporter assay the amount or activity of a reporter protein is the signal.

Each structure is given as a SMILES string.

As a reminder, the EC50 is the concentration that produces a half-maximal response. Consider `Cc1nc(-c2ccc3c(c2)OC(F)(F)O3)c(-c2cc(-c3cc(F)c(CO)c(S(C)(=O)=O)c3)ccc2-c2cc(C(C)OC(N)=O)nn2C)o1` (stereo not drawn) [Example 131, 1-(5-(3-(4-(2,2-difluorobenzo[d][1,3]dioxol-5-yl)-2-methyloxazol-5-yl)-3′-fluoro-4′-(hydroxymethyl)-5′-(methylsulfonyl)-[1,1′-biphenyl]-4-yl)-1-methyl-1H-pyrazol-3-yl)ethyl carbamate], for which the EC50 turned out to be 178 nM and the Emax is 47%.
As to `Cn1nc(C(F)(F)C(N)=O)cc1-c1ccc(-c2cccc(S(C)(=O)=O)c2)cc1-n1nncc1-c1ccc(Cl)cc1Cl` [Example 32, 2-(5-(3-(5-(2,4-dichlorophenyl)-1H-1,2,3-triazol-1-yl)-3′-(methylsulfonyl)-[1,1′-biphenyl]-4-yl)-1-methyl-1H-pyrazol-3-yl)-2,2-difluoroacetamide], the EC50 came out at 1760 nM and the Emax stood at 43%.
On the same counts, the results for `Cc1cc(C(C)(F)F)n(-c2ccc(-c3cccc(S(C)(=O)=O)c3)cc2-n2nncc2-c2ccc(OC(F)(F)F)cc2)n1` [Example 306, 1-{4-[5-(1,1-difluoroethyl)-3-methyl-1H-pyrazol-1-yl]-3′-(methylsulfonyl)biphenyl-3-yl}-5-{4-[(trifluoromethyl)oxy]phenyl}-1H-1,2,3-triazole] are 203 nM and 71%.
Take `Cc1nc(-c2ccc3c(c2)OC(F)(F)O3)c(-c2cc(-c3cccc(S(C)(=O)=O)c3)ccc2-c2cc(CC(N)=O)nn2C)o1` [Example 119, 2-(5-(3-(4-(2,2-difluorobenzo[d][1,3]dioxol-5-yl)-2-methyloxazol-5-yl)-3′-(methylsulfonyl)-[1,1′-biphenyl]-4-yl)-1-methyl-1H-pyrazol-3-yl)acetamide]: the EC50 stood at 1080 nM and the Emax is 60%.
Take `Cc1c(C(C)(F)F)nn(C)c1-c1ccc(-c2cccc(S(C)(=O)=O)c2)cc1-n1nncc1-c1ccc(OC(F)(F)F)cc1` [Example 10, 1-(4-(3-(1,1-difluoroethyl)-1,4-dimethyl-1H-pyrazol-5-yl)-3′-(methylsulfonyl)biphenyl-3-yl)-5-(4-(trifluoromethoxy)phenyl)-1H-1,2,3-triazole]: the EC50 came to 31 nM and the Emax is 104%.
With `Cc1nc(-c2ccc3c(c2)OC(F)(F)O3)c(-c2cc(-c3cccc(S(C)(=O)=O)c3)ccc2-c2cc(C(F)(F)C(N)=O)nn2C)o1` [Example 73, 2-(5-(3-(4-(2,2-difluorobenzo[d][1,3]dioxol-5-yl)-2-methyloxazol-5-yl)-3′-(methylsulfonyl)biphenyl-4-yl)-1-methyl-1H-pyrazol-3-yl)-2,2-difluoroacetamide], the EC50 was found to be 42 nM and the Emax turned out to be 55%.
In the same order, the values of `Cn1nc(C(=O)NCC(F)(F)F)cc1-c1ccc(-c2cccc(S(C)(=O)=O)c2)cc1-n1nncc1-c1ccc(OC(F)(F)F)cc1` [Example 39, 1-methyl-5-[3′-(methylsulfonyl)-3-(5-{4-[(trifluoromethyl)oxy]phenyl}-1H-1,2,3-triazol-1-yl)biphenyl-4-yl]-N-(2,2,2-trifluoroethyl)-1H-pyrazole-3-carboxamide] are 776 nM and 79%.
On the same counts, the results for `Cc1nc(-c2ccc3c(c2)OC(F)(F)O3)c(-c2cc(-c3cc(F)c(CO)c(S(C)(=O)=O)c3)ccc2-c2cc(-c3cnco3)nn2C)o1` [Example 57, (3′-(4-(2,2-difluorobenzo[d][1,3]dioxol-5-yl)-2-methyloxazol-5-yl)-3-fluoro-4′-(1-methyl-3-(oxazol-5-yl)-1H-pyrazol-5-yl)-5-(methylsulfonyl)-[1,1′-biphenyl]-4-yl)methanol] are 158 nM and 18%.
`Cc1nc(-c2ccc(Cl)cc2)c(-c2cc(-c3cc(F)c(CO)c(S(C)(=O)=O)c3)ccc2-n2ccc(C(F)(F)F)n2)o1` [Example 336, (3′-(4-(4-chlorophenyl)-2-methyloxazol-5-yl)-3-fluoro-5-(methylsulfonyl)-4′-(3-(trifluoromethyl)-1H-pyrazol-1-yl)biphenyl-4-yl)methanol]: the EC50 was 33 nM and the Emax came to 75%.
On the same counts, the results for `Cc1nc(-c2cc(-c3cccc(S(C)(=O)=O)c3)ccc2-n2ccc(C(N)=O)n2)c(-c2ccc(OC(F)(F)F)cc2)o1` [Example 416] are 3050 nM and 27%.
Take `Cn1nc(C(F)(F)C(C)(C)O)cc1-c1ccc(-c2cc(F)c(CO)c(S(C)(=O)=O)c2)cc1-n1nncc1-c1ccc(OC(F)(F)F)cc1` [Example 3, 1,1-difluoro-1-(5-(3′-fluoro-4′-(hydroxymethyl)-5′-(methylsulfonyl)-3-(5-(4-(trifluoromethoxy)phenyl)-1H-1,2,3-triazol-1-yl)biphenyl-4-yl)-1-methyl-1H-pyrazol-3-yl)-2-methylpropan-2-ol]: the EC50 came out at 245 nM and the Emax worked out at 73%.
As for `Cc1nc(-c2ccc(OC(F)(F)F)cc2)c(-c2cc(-c3cccc(S(C)(=O)=O)c3)ccc2-n2ccc(C(N)=O)n2)o1` [Example 308, 1-(3-(2-methyl-4-(4-(trifluoromethoxy)phenyl)oxazol-5-yl)-3′-(methylsulfonyl)biphenyl-4-yl)-1H-pyrazole-3-carboxamide], the EC50 amounted to 1650 nM and the Emax came to 29%.
On the same counts, the results for `COc1ncc(-c2nc(C)oc2-c2cc(-c3cc(F)c(CO)c(S(C)(=O)=O)c3)ccc2-n2cc(Cl)c(C(F)(F)F)n2)cn1` [Example 428, (4′-(4-chloro-3-(trifluoromethyl)-1H-pyrazol-1-yl)-3-fluoro-3′-(4-(2-methoxypyrimidin-5-yl)-2-methyloxazol-5-yl)-5-(methylsulfonyl)-[1,1′-biphenyl]-4-yl)methanol] are 93 nM and 83%.
On the same counts, the results for `Cc1nc(-c2ccc3c(c2)OC(F)(F)O3)c(-c2cc(-c3cc(F)c(CO)c(S(C)(=O)=O)c3)ccc2-c2cc(C(=O)NCC3CC3)nn2C)o1` [Example 110, N-(cyclopropylmethyl)-5-(3-(4-(2,2-difluorobenzo[d][1,3]dioxol-5-yl)-2-methyloxazol-5-yl)-3′-fluoro-4′-(hydroxymethyl)-5′-(methylsulfonyl)-[1,1′-biphenyl]-4-yl)-1-methyl-1H-pyrazole-3-carboxamide] are 244 nM and 55%.
On to `Cc1nc(-c2cc(-c3cc(F)c(CO)c(S(C)(=O)=O)c3)ccc2-n2nc(C(F)(F)F)cc2C)c(-c2ccc(OC(F)(F)F)cc2)o1` [Example 386, (3-fluoro-4′-(5-methyl-3-(trifluoromethyl)-1H-pyrazol-1-yl)-3′-(2-methyl-5-(4-(trifluoromethoxy)phenyl)oxazol-4-yl)-5-(methylsulfonyl)biphenyl-4-yl)methanol], for which the EC50 stood at 34 nM and the Emax is 86%.
Take `Cc1nc(-c2ccc(OC(F)(F)F)cc2)c(-c2cc(-c3cc(F)c(CO)c(S(C)(=O)=O)c3)ccc2-n2cc(C)c(C(F)(F)F)n2)o1` [Example 439, (3-fluoro-4′-(4-methyl-3-(trifluoromethyl)-1H-pyrazol-1-yl)-3′-(2-methyl-4-(4-(trifluoromethoxy)phenyl)oxazol-5-yl)-5-(methylsulfonyl)-[1,1′-biphenyl]-4-yl)methanol]: the EC50 came out at 38 nM and the Emax was determined as 64%.
Take `Cc1nc(-c2ccc(OC(F)F)cc2)c(-c2cc(-c3cccc(S(C)(=O)=O)c3)ccc2-n2ccc(C(F)(F)F)n2)o1` [Example 435, 4-(4-(difluoromethoxy)phenyl)-2-methyl-5-(3′-(methylsulfonyl)-4-(3-(trifluoromethyl)-1H-pyrazol-1-yl)-[1,1′-biphenyl]-3-yl)oxazole]: the concentration for a half-maximal effect (EC50) stood at 30 nM and the Emax amounted to 53%.
Consider `Cc1nc(-c2cc(-c3ccc(CO)c(S(C)(=O)=O)c3)ccc2-n2nc(C(F)(F)F)cc2C)c(-c2ccc(OC(F)(F)F)cc2)o1` [Example 387, (4′-(5-methyl-3-(trifluoromethyl)-1H-pyrazol-1-yl)-3′-(2-methyl-5-(4-(trifluoromethoxy)phenyl)oxazol-4-yl)-3-(methylsulfonyl)biphenyl-4-yl)methanol], for which the EC50 was determined as 82 nM and the Emax was 79%.

(Values after patent US9751869B2, “LXR modulators” (BRISTOL-MYERS SQUIBB COMPANY, priority 2013, dated 2017).)
